For this assay, the target named is T1, α-Mannosidase (Jack bean) (Canavalia ensiformis, UniProt C0HJB3).
T1 sequence (C0HJB3 1-981): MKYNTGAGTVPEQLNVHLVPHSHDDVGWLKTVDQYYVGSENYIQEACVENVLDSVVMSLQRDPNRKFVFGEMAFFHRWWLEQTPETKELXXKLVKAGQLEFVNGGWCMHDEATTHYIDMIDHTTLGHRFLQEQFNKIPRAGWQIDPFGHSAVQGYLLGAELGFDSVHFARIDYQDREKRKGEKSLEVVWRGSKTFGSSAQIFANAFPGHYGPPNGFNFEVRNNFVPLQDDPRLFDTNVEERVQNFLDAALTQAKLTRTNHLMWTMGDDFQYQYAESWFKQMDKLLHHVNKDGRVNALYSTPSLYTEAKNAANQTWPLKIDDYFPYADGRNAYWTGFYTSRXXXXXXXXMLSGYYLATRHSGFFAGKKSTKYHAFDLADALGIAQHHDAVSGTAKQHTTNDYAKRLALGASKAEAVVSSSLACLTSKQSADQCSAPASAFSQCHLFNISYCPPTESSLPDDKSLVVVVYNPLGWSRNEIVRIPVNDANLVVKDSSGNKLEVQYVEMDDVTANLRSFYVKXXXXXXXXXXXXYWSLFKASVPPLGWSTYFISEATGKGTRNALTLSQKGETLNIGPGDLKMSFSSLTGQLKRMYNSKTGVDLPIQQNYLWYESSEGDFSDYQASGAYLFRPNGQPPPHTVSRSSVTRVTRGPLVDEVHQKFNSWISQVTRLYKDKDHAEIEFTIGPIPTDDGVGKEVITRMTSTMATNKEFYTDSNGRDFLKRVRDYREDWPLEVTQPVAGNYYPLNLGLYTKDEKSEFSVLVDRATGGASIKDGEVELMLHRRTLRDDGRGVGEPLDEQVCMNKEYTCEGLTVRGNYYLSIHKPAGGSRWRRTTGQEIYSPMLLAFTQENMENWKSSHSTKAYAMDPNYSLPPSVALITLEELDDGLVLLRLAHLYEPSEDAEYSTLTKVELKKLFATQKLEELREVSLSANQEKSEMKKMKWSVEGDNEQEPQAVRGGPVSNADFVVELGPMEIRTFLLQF
The assay can be described thus: Mannosidase screening assay (p-nitrophenyl-α-mannopyranoside substrate, absorbance at 405 nm). It is filed as biochemical. The conditions noted are these: Jack bean enzyme, sodium acetate buffer pH 4.5, 37° for 30 min.

Experimental: This can be demostrated by the ability of the compound to inhibit Jack bean mannosidase or mannosidase II as follows: Mannosidase Screening Assay (Kang, et al., Plant Physiol. 71:551-554 (1983)). Activities of mannosidase are first screened with Jack bean enzyme using p-nitrophenyl substrate as follows using a 96-well microplate. Total Rxn mix 200µl. • 1. Add compounds to be tested and dilute to 100µl with H2O. • 2. Add 25µl of 1M sodium acetate buffer pH 4.5 containing 10mM ZnCl2. • 3. Add 25µl of enzyme or approximately 0.05 µg protein. • 4. Mix and incubate at R.T. for 30 min. • 5. Add 50µl of 10 mM p-nitrophenyl-α-mannopyranoside in H2O to start the Rxn and incubate 37° for 30 min. Stop reaction by addition 100µl of 0.2M (2%) sodium carbonate solution (pH∼12). Read absorbance at 405 nm.

`CN[C@@H]1[C@@H](O)[C@@H](O)[C@H](O)[C@H]1CO` [1,3β,5β,R=CH3, (1α,2β,3β,4α,5β)-Methyl[2,3,4-trihydroxy-5-(hydroxymethyl)cyclopentyl]amine] gave an IC50 of 62.1 nM.

For orientation: IC50 means the concentration that inhibits the measured activity by half. The low end stands for greater potency, the high end for weaker potency.

The values are drawn from patent publication EP0451834B1, “Alpha-mannosidase and fucosidase inhibitors” (MERRELL PHARMACEUTICALS INC., priority 1990, dated 1991).
